Data as given in patent US20240239775A1, “FXR REGULATOR, PREPARATION METHOD THEREFOR, PHARMACEUTICAL COMPOSITION THEREOF AND USE THEREOF” (QINGDAO RUIJI MEDICAL TECHNOLOGY CO., LTD., priority 2021, published 2024).
pIC50: −log10 of the molar value.

Target: T1, FXR (Homo sapiens, UniProt Q96RI1)
T1 construct: 5 μL of 20 nM FXR-LBD Complete Coregulator buffer G; purchased ThermoFisher PV4833
T1 sequence (Q96RI1 262-486 limits assumed): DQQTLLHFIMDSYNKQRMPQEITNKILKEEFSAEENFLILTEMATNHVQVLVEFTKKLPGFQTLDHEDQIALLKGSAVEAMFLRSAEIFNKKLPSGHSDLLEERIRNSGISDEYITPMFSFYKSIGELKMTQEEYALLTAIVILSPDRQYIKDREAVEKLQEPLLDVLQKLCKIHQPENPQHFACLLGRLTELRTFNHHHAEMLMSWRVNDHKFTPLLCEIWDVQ
Assay: FXR antagonist screening by TR-FRET (LanthaScreen TR-FRET FXR co-activation assay kit)
Assay type: biochemical
Settings: Table 1.2, FXR antagonistic activity; TR-FRET with CDCA; geometric means of at least two independent runs
Protocol: FXR activity was evaluated by time-resolved fluorescence resonance energy transfer (TR-FRET) assay, using LanthaScreen™ TR-FRET FXR co-activation assay kit (ThermoFisher, Cat. PV4833). For agonist screening, 10 μL of Complete Coregulator buffer G containing the corresponding concentration of the compound to be tested, 5 μL of 20 nM FXR-LBD Complete Coregulator buffer G, and 5 μL of 2.0 μM Fluorescein-SRC2-2/20 nM Tb-anti-GST antibody Complete Coregulator buffer G were added to each well of a 384-well black plate (Coring) in sequence. […] Three duplicate wells were set up for each compound, with CDCA as the positive compound and DMSO as the solvent control. For antagonist screening, 5 μL of Complete Coregulator buffer G containing the corresponding concentration of the compound to be tested, 5 μL of 20 nM FXR-LBD Complete Coregulator buffer G, 5 μL of 200 μM CDCA FXR-LBD Complete Coregulator buffer G, and 5 μL of 2.0 μM Fluorescein-SRC2-2/20 nM Tb-anti-GST antibody Complete Coregulator buffer G were added to each well of a 384-well black plate (Coring) in sequence and incubated at room temperature for 10 h. Following operations were the same as those for agonist screening

Compound | pIC50
Cc1c(C(=O)O)oc2ccc(S(=O)(=O)N(CCc3ccccc3)c3ccccc3N3CCN(C(=O)c4ccc[nH]4)CC3)cc12 [Example F27-S124, 5-(N-(2-(4-(1H-pyrrole-2-carbonyl)piperazin-1-yl)phenyl)-N-phenethylsulfamoyl)-3-methylbenzofuran-2-carboxylic acid] | 5.00 to 7.00
Cc1c(C(=O)O)oc2ccc(S(=O)(=O)N(CCc3ccccc3)c3ccccc3N3CCN(C(=O)c4sccc4Br)CC3)cc12 [Example F27-S125, 5-(N-(2-(4-(3-bromothiophene-2-carbonyl)piperazin-1-yl)phenyl)-N-phenethylsulfamoyl)-3-methyl benzofuran-2-carboxylic acid] | 5.00 to 7.00
Cc1c(C(=O)O)oc2ccc(S(=O)(=O)N(CCc3ccccc3)c3ccccc3N3CCN(C(=O)c4sccc4Cl)CC3)cc12 [Example F27-S126, 5-(N-(2-(4-(3-chlorothiophene-2-carbonyl)piperazin-1-yl)phenyl)-N-phenethylsulfamoyl)-3-methyl benzofuran-2-carboxylic acid] | 5.00 to 7.00
Cc1c(C(=O)O)oc2ccc(S(=O)(=O)N(CCc3ccccc3)c3ccccc3N3CCN(C(=O)c4cc(Br)cs4)CC3)cc12 [Example F27-S127, 5-(N-(2-(4-(4-bromothiophene-2-carbonyl)piperazin-1-yl)phenyl)-N-phenethylsulfamoyl)-3-methyl benzofuran-2-carboxylic acid] | 5.00 to 7.00
Cc1c(C(=O)O)oc2ccc(S(=O)(=O)N(CCc3ccccc3)c3ccccc3N3CCN(C(=O)c4ccc(Cl)s4)CC3)cc12 [Example F27-S128, 5-(N-(2-(4-(5-chlorothiophene-2-carbonyl)piperazin-1-yl)phenyl)-N-phenethylsulfamoyl)-3-methyl benzofuran-2-carboxylic acid] | 5.00 to 7.00
Cc1c(C(=O)O)oc2ccc(S(=O)(=O)N(CCc3ccccc3)c3ccccc3N3CCN(C(=O)c4cncs4)CC3)cc12 [Example F27-S129, 3-methyl-5-(N-phenethyl-N-(2-(4-(thiazole-5-carbonyl)piperazin-1-yl)phenyl)sulfamoyl)benzofuran-2-carboxylic acid] | 5.00 to 7.00
Cc1c(C(=O)O)oc2ccc(S(=O)(=O)N(CCc3ccccc3)c3ccccc3N3CCN(C(=O)c4cc[nH]n4)CC3)cc12 [Example F27-S130, 5-(N-(2-(4-(1H-pyrazole-3-carbonyl)piperazin-1-yl)phenyl)-N-phenethylsulfamoyl)-3-methylbenzo furan-2-carboxylic acid] | 5.00 to 7.00
Cc1c(C(=O)O)oc2ccc(S(=O)(=O)N(CCc3ccccc3)c3ccccc3N3CCN(C(=O)c4cnco4)CC3)cc12 [Example F27-S131, 3-methyl-5-(N-(2-(4-(oxazole-5-carbonyl)piperazin-1-yl)phenyl)-N-phenethylsulfamoyl)benzofuran-2-carboxylic acid] | 5.00 to 7.00
Cc1ccc(C(=O)N2CCN(c3ccccc3N(CCc3ccccc3)S(=O)(=O)c3ccc4oc(C(=O)O)c(C)c4c3)CC2)cc1C [Example F27-S132, 5-(N-(2-(4-(3,4-dimethylbenzoyl)piperazin-1-yl)phenyl)-N-phenethylsulfamoyl)3-methylbenzofuran-2-carboxylic acid] | 5.00 to 7.00
COc1cccc(OC)c1C(=O)N1CCN(c2ccccc2N(CCc2ccccc2)S(=O)(=O)c2ccc3oc(C(=O)O)c(C)c3c2)CC1 [Example F27-S133, 5-(N-(2-(4-(2,6-dimethoxybenzoyl)piperazin-1-yl)phenyl)-N-phenethylsulfamoyl)3-methylbenzofuran-2-carboxylic acid] | 5.00 to 7.00
Cc1c(C(=O)O)oc2ccc(S(=O)(=O)N(CCc3ccccc3)c3ccccc3N3CCN(C(=O)c4ccccc4Cc4ccccc4)CC3)cc12 [Example F27-S134, 5-(N-(2-(4-(2-benzylbenzoyl)piperazin-1-yl)phenyl)-N-phenethylsulfamoyl)3-methylbenzofuran-2-carboxylic acid] | 5.00 to 7.00
